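96-well plates; 48 h exposure; 5 concentrations. Endpoints by linear interpolation between flanking doses. Not reached: highest tested concentration assigned. Here, GI50 denotes the concentration required for 50% inhibition of growth.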 Activity calls are given as the source filed them. Cut-off read from the data, not from the text of the source: active = GI50 up to about 1.1 µM and inactive = higher. Where only a bound is given, the exact number is not on record here.

The text below walks through data of ChEMBL document CHEMBL1201862, “PubChem BioAssay data set” (2004).

Some test systems named below: 786-0; A498; BT-549; HOP-92; HT-29; Hs-578T; K562; LOX IMVI; Malme-3M; NCI-H226; NCI-H460; OVCAR-4; OVCAR-5; OVCAR-8; SF-295; SK-MEL-28; SNB-75; U-251; UO-31.
What all share (test): NCI tumour cell line growth inhibition, 48 h

With `CCCCCCCCCCCCCCCCCCNc1nc(=O)n(C2CC(O)C(COP(=O)(O)OCC(COP(=O)(O)OC3C(CO)OC(n4ccc(N)nc4=O)C3O)OCCCCCCCCCCCCCCCCCC)O2)cc1F` (stereo not drawn), the GI50 with 786-0 is 14.8 µM (inactive); with A498, 36.7 µM (inactive); in the assay on BT-549 it was 56.4 µM (inactive); in the assay with HOP-92, > 100 µM (inactive); with HT-29, 79.1 µM (inactive); with Hs-578T it was 78.5 µM (inactive). Further, the GI50 in the assay with K562 is 22.9 µM (inactive); in the assay on LOX IMVI it was 16.7 µM (inactive); with Malme-3M, 41.4 µM (inactive); in the assay on NCI-H226 it was > 100 µM (inactive); in the assay with NCI-H460 it was 9.2 µM (inactive); in the assay with OVCAR-4, 87.9 µM (inactive). In addition, the GI50 with OVCAR-5 is 67.1 µM (inactive); with OVCAR-8, 18.6 µM (inactive); in the assay on SF-295 it was > 100 µM (inactive); in the assay on SK-MEL-28, 69.7 µM (inactive); in the assay with SNB-75 it was 80.5 µM (inactive); in the assay on U-251 it was 13.3 µM (inactive). Also, the GI50 in the assay on UO-31 was 28.8 µM (inactive).
Turning to `COC(=O)c1ccc2c(O)c(O)ccc2c1`, the GI50 in the assay with 786-0 is 15.6 µM (inactive); in the assay with A498 it was 21.3 µM (inactive); in the assay with BT-549 it was 12.5 µM (inactive); with HOP-92 it was 18.4 µM (inactive); in the assay with HT-29, 17.1 µM (inactive); in the assay with Hs-578T it was 27 µM (inactive). Also, the GI50 in the assay with K562 is 2.36 µM (inactive); in the assay on LOX IMVI it was 2.87 µM (inactive); in the assay with Malme-3M, 11.8 µM (inactive); in the assay with NCI-H226, 23.1 µM (inactive); in the assay on NCI-H460, 19.9 µM (inactive); in the assay on OVCAR-4 it was 14.6 µM (inactive). The GI50 was 19.2 µM (inactive) with OVCAR-5; 16.1 µM (inactive) in the assay on OVCAR-8; 6.98 µM (inactive) in the assay on SF-295; 16.3 µM (inactive) in the assay with SK-MEL-28; 12.8 µM (inactive) with SNB-75; 14.4 µM (inactive) in the assay on U-251. In addition, the GI50 with UO-31 was 20.7 µM (inactive).
Consider `CC(C)(C)OC(=O)CC(NC(=O)OC(C)(C)C)C(=O)Oc1ccc([N+](=O)[O-])cc1` (stereo not drawn), for which the GI50 in the assay on 786-0, in the assay with A498, in the assay with BT-549, with HOP-92, in the assay on HT-29 and with Hs-578T was > 100 µM (inactive) throughout. Moreover, the GI50 in the assay with K562, in the assay with LOX IMVI, in the assay on Malme-3M, with NCI-H226, with NCI-H460 and with OVCAR-4 was > 100 µM (inactive) in each case. In addition, the GI50 in the assay on OVCAR-5, in the assay with OVCAR-8, in the assay with SF-295, in the assay on SK-MEL-28, in the assay with SNB-75 and with U-251 was > 100 µM (inactive) each time. In addition, the GI50 in the assay on UO-31 was > 100 µM (inactive).
On to `O=C(/C(=C\I)c1ccccc1)c1ccccc1`, for which the GI50 is 3.52 µM (inactive) with 786-0; 16.5 µM (inactive) in the assay on A498; 16.3 µM (inactive) with BT-549; 13.7 µM (inactive) in the assay on HOP-92; 1.93 µM (inactive) in the assay on HT-29; 3.75 µM (inactive) in the assay on Hs-578T. Besides, the GI50 in the assay on K562 is 3.31 µM (inactive); in the assay with LOX IMVI, 12.7 µM (inactive); with Malme-3M, 7.31 µM (inactive); in the assay on NCI-H226 it was 24.6 µM (inactive); in the assay with NCI-H460, 10.9 µM (inactive); in the assay on OVCAR-4, 6.7 µM (inactive). In addition, the GI50 was 17.5 µM (inactive) in the assay on OVCAR-5; 4.32 µM (inactive) with OVCAR-8; 16.9 µM (inactive) in the assay with SF-295; 2.16 µM (inactive) with SK-MEL-28; 9.42 µM (inactive) in the assay with SNB-75; 2.75 µM (inactive) in the assay on U-251. The GI50 in the assay on UO-31 was 7.78 µM (inactive).
`CC1(C)N=C(N)N=C(N)N1c1cccc(C(=O)Nc2ccc(S(=O)(=O)F)cc2)c1`: the GI50 in the assay with 786-0, in the assay on A498, in the assay with BT-549, in the assay with HOP-92, in the assay with HT-29 and in the assay on Hs-578T was > 100 µM (inactive) throughout. In addition, the GI50 in the assay on K562, with LOX IMVI, with Malme-3M, in the assay on NCI-H226, in the assay on NCI-H460 and in the assay on OVCAR-4 was > 100 µM (inactive) throughout. The GI50 in the assay with OVCAR-5, in the assay with OVCAR-8, in the assay with SF-295, in the assay with SK-MEL-28, in the assay on SNB-75 and in the assay with U-251 was > 100 µM (inactive) in each case. Besides, in the assay with UO-31, the GI50 was > 100 µM (inactive).
Take `NC(=O)C1=C(O)C[C@@H]2CC3Cc4cccc(O)c4C(=O)C3=C(O)[C@]2(O)C1=O` (stereo partly drawn): the GI50 was 3.24 µM (inactive) with 786-0; 2.74 µM (inactive) in the assay with A498; 1.87 µM (inactive) in the assay with BT-549; 1.67 µM (inactive) in the assay with HOP-92; 0.339 µM (active) in the assay on HT-29; 2.81 µM (inactive) in the assay on Hs-578T. Further, the GI50 in the assay with K562 is 1.81 µM (inactive); with LOX IMVI it was 1.77 µM (inactive); with Malme-3M, 2 µM (inactive); in the assay with NCI-H226, 2.23 µM (inactive); in the assay on NCI-H460 it was 1.56 µM (inactive); in the assay on OVCAR-4, 10.7 µM (inactive). Also, the GI50 was 0.449 µM (active) in the assay with OVCAR-5; 2.92 µM (inactive) in the assay with OVCAR-8; 1.85 µM (inactive) with SF-295; 4 µM (inactive) in the assay with SK-MEL-28; 2.43 µM (inactive) with SNB-75; 0.962 µM (active) in the assay with U-251. In addition, in the assay on UO-31, the GI50 was 2.9 µM (inactive).
On to `CC(Oc1ccc(Cl)cc1Cl)C(=O)NN1C(=O)CSC1c1ccccc1` (stereo not drawn), for which the GI50 was 43.5 µM (inactive) in the assay on 786-0; 42.8 µM (inactive) in the assay with A498; 24 µM (inactive) with BT-549; 27.7 µM (inactive) in the assay with HOP-92; > 100 µM (inactive) in the assay on HT-29; 45.6 µM (inactive) in the assay on Hs-578T. Further, the GI50 is 63.4 µM (inactive) in the assay on K562; 69 µM (inactive) with LOX IMVI; 40.9 µM (inactive) with Malme-3M; 24.2 µM (inactive) with NCI-H226; > 100 µM (inactive) in the assay with NCI-H460; 32.1 µM (inactive) with OVCAR-4. Also, the GI50 with OVCAR-5 is > 100 µM (inactive); with OVCAR-8 it was 51.1 µM (inactive); with SF-295 it was 60 µM (inactive); with SK-MEL-28, 50.5 µM (inactive); in the assay on SNB-75, 34.7 µM (inactive); in the assay on U-251, 76.4 µM (inactive). Also, the GI50 in the assay on UO-31 was > 100 µM (inactive).
